The source of these data is ChEMBL document CHEMBL1139417, “Synthesis and biological evaluation of novel 3'-N-tert-butylsulfonyl analogues of docetaxel” (Bioorg Med Chem Lett, 2008).

What is called IC50 is the concentration needed to halve the response being measured.

Common to all, as to type: functional, cell-based
One experiment relates to SMMC-7721. Briefly: Cytotoxicity against human SMMC7721 cells.
For a further experiment, the system named is HeLa. Briefly: Cytotoxicity against human HeLa cells.
Experiment [1] can be described thus: Cytotoxicity against human Eca109 cells. The note with it: ECa-109.
Another experiment has as its system HCT-8. Kind of experiment: Cytotoxicity against human HCT8 cells.

`CC(=O)O[C@@]12CO[C@@H]1C[C@H](O)[C@@]1(C)C(=O)[C@H](O)C3=C(C)[C@@H](OC(=O)[C@H](O)[C@@H](NC(=O)OC(C)(C)C)c4ccccc4)C[C@@](O)([C@@H](OC(=O)c4ccccc4)[C@H]21)C3(C)C` [DOCETAXEL]: the concentration for half-maximal inhibition (IC50) in the experiment with SMMC-7721 came to 2.73 µM; with HeLa it was 3.03 µM; in experiment [1], 2.6 µM; with HCT-8, 3.07 µM.

Consider `CC(=O)O[C@@]12CO[C@@H]1C[C@H](O)[C@@]1(C)C(=O)[C@H](O)C3=C(C)[C@@H](OC(=O)[C@H](O)[C@@H](NS(=O)(=O)C(C)(C)C)c4cccc[n+]4[O-])C[C@@](O)([C@@H](OC(=O)c4ccccc4)[C@H]21)C3(C)C`, for which the IC50 in the experiment with SMMC-7721 was found to be 2.54 µM; in the experiment on HeLa, 2.54 µM; in experiment [1], 1.95 µM; with HCT-8 it was 2.85 µM.

As for `CC(=O)O[C@H]1C(=O)[C@@]2(C)[C@H]([C@H](OC(=O)c3ccccc3)[C@]3(O)C[C@H](OC(=O)[C@H](O)[C@@H](NC(=O)c4ccccc4)c4ccccc4)C(C)=C1C3(C)C)[C@]1(OC(C)=O)CO[C@@H]1C[C@@H]2O` [PACLITAXEL], the IC50 with SMMC-7721 was found to be 2.86 µM; in experiment [1], 2.73 µM; in the experiment with HCT-8 it was 3.29 µM.

Take `CC(=O)O[C@@]12CO[C@@H]1C[C@H](O)[C@@]1(C)C(=O)[C@H](O)C3=C(C)[C@@H](OC(=O)[C@H](O)[C@@H](NS(=O)(=O)C(C)(C)C)c4ccc[n+]([O-])c4)C[C@@](O)([C@@H](OC(=O)c4ccccc4)[C@H]21)C3(C)C`: the IC50 amounted to 2.45 µM in the experiment with SMMC-7721, 2.67 µM with HeLa, 2.52 µM in experiment [1] and 3.03 µM in the experiment on HCT-8.

Regarding `CC(=O)O[C@@]12CO[C@@H]1C[C@H](O)[C@@]1(C)C(=O)[C@H](O)C3=C(C)[C@@H](OC(=O)[C@H](O)[C@@H](NS(=O)(=O)C(C)(C)C)c4ccccc4)C[C@@](O)([C@@H](OC(=O)c4ccccc4)[C@H]21)C3(C)C`, the IC50 was above 10 µM in the experiment on SMMC-7721, 9.54 µM in the experiment on HeLa, 7.14 µM in experiment [1] and 9.12 µM in the experiment on HCT-8.
